Test results as given in patent US20250282768A1 (Janssen Pharmaceutica NV, priority 2022, published 2025).

Tested on: p-IKKa levels in L363 (NIK translocated multiple myeloma) cells
Experiment: Assay 2: Effect of compounds on p-IKKa levels in L363 (NIK translocated multiple myeloma) cells
Format: cell-based
Details: Homo sapiens, L-363, 6 h, read-out: Assay 2 IC50 (nM), p-IKKa (Ser 176/180) in BAFF stimulated L363 cells with MG132, 6 h; average if tested more than once
Method in brief: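 L363 cells incubated overnight ± 250 ng/ml BAFF, then 6 h at 37 °C with compound (0.3% DMSO) ± 10 μM MG132. Lysates assayed for p-IKKa (Ser176/180) by AlphaLISA SureFire. IC50 from sigmoidal fit of % inhibition normalized to BAFF/MG132-stimulated and unstimulated controls.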

| Compound | IC50 [nM] |
| --- | --- |
| CN1CC[C@@](O)(c2cc(-c3cccc(-c4ccnc(Nc5cnn(C)c5)n4)n3)on2)C1=O [Example 30, (R)-3-Hydroxy-1-methyl-3-(5-(6-(2-((1-methyl-1H-pyrazol-4-yl)amino)pyrimidin-4-yl)pyridin-2-yl)isoxazol-3-yl)pyrrolidin-2-one] | < 50 |
| CN1CC[C@@](O)(c2cc(-c3cccc(-c4ccnc(Nc5ccn(C)n5)n4)n3)on2)C1=O [Example 263, (R)-3-Hydroxy-1-methyl-3-(5-(6-(2-((1-methyl-1H-pyrazol-3-yl)amino)pyrimidin-4-yl)pyridin-2-yl)isoxazol-3-yl)pyrrolidin-2-one] | < 50 |
| CN1CC[C@@](O)(c2cc(-c3cccc(-c4ccnc(NCC(=O)N5CC(F)(F)C5)n4)n3)no2)C1=O [Example 185, (R)-3-(3-(6-(2-((2-(3,3-Difluoroazetidin-1-yl)-2-oxoethyl)amino)pyrimidin-4-yl)pyridin-2-yl)isoxazol-5-yl)-3-hydroxy-1-methylpyrrolidin-2-one] | > 500 |
| COc1cn([C@H]2C[C@H](O)C2)nc1Nc1nccc(-c2cccc(-c3cc([C@]4(O)CCN(C)C4=O)on3)n2)n1 [Example 231, (R)-3-Hydroxy-3-(3-(6-(2-((1-((1r,3r)-3-hydroxycyclobutyl)-4-methoxy-1H-pyrazol-3-yl)amino)pyrimidin-4-yl)pyridin-2-yl)isoxazol-5-yl)-1-methylpyrrolidin-2-one] | < 50 |
| C[C@H](Nc1nccc(-c2cccc(-c3cc([C@]4(O)CCN(C)C4=O)no3)n2)n1)c1cnn(C)c1 (single isomer, unassigned) [Example 400] | > 500 |
| C[C@H](Nc1nccc(-c2cccc(-c3cc([C@]4(O)CCN(C)C4=O)on3)n2)n1)C(N)=O [Example 182, (S)-2-((4-(6-(5-((R)-3-Hydroxy-1-methyl-2-oxopyrrolidin-3-yl)isoxazol-3-yl)pyridin-2-yl)pyrimidin-2-yl)amino)propanamide] | 50 to 500 |
| C[C@H](Nc1nccc(-c2cccc(-c3cc([C@]4(O)CCN(C)C4=O)on3)n2)n1)c1cn2ccccc2n1 [Example 394, (R)-3-Hydroxy-3-(3-(6-(2-(((S)-1-(imidazo[1,2-a]pyridin-2-yl)ethyl)amino)pyrimidin-4-yl)pyridin-2-yl)isoxazol-5-yl)-1-methylpyrrolidin-2-one] | > 500 |
| C[C@H](Nc1nccc(-c2cccc(-c3cc([C@]4(O)CCN(C)C4=O)on3)n2)n1)C(=O)N1CC(C)(F)C1 [Example 178, (R)-3-(3-(6-(2-(((S)-1-(3-Fluoro-3-methylazetidin-1-yl)-1-oxopropan-2-yl)amino)pyrimidin-4-yl)pyridin-2-yl)isoxazol-5-yl)-3-hydroxy-1-methylpyrrolidin-2-one] | 50 to 500 |
| CN(C)C(=O)Cn1ccc(Nc2nccc(-c3cccc(-c4cc([C@]5(O)CCN(C)C5=O)on4)n3)n2)n1 [Example 277, (R)-2-(3-((4-(6-(5-(3-Hydroxy-1-methyl-2-oxopyrrolidin-3-yl)isoxazol-3-yl)pyridin-2-yl)pyrimidin-2-yl)amino)-1H-pyrazol-1-yl)-N,N-dimethylacetamide] | 50 to 500 |
| CO[C@@H](C)CNc1nccc(-c2cccc(-c3cc([C@]4(O)CCN(C)C4=O)on3)n2)n1 [Example 362, (R)-3-Hydroxy-3-(3-(6-(2-(((S)-2-methoxypropyl)amino)pyrimidin-4-yl)pyridin-2-yl)isoxazol-5-yl)-1-methylpyrrolidin-2-one] | 50 to 500 |
| CN1CC[C@@](O)(c2cc(-c3cccc(-c4ccnc(Nc5cnn([C@@H]6CCN(C7COC7)C6)c5)n4)n3)no2)C1=O (single isomer, unassigned) [Example 141] | < 50 |
| CN1CC[C@H](n2cc(Nc3nccc(-c4cccc(-c5cc([C@]6(O)CCN(C)C6=O)on5)n4)n3)cn2)C1 (single isomer, unassigned) [Example 203, (R)-3-Hydroxy-1-methyl-3-(3-(6-(2-((1-((*S)-1-methylpyrrolidin-3-yl)-1H-pyrazol-4-yl)amino)pyrimidin-4-yl)pyridin-2-yl)isoxazol-5-yl)pyrrolidin-2-one] | 50 to 500 |
